Assay results as given in patent US8008298B2, “Pyrrolopyrazine kinase inhibitors” (Roche Palo Alto, priority 2008, dated 2011).

Legend:
Type in all cases: biochemical
[1] = target: JAK2: Recombinant human kinase domain (Homo sapiens, UniProt O60674); test: JAK2 kinase inhibition, radioactive end-point assay; details: 1 nM JAK2, ATP 1.5 uM, peptide 50 uM, 20 minutes, room temperature; read-out: IC50 h-jak2-sf21-c
Excerpt: (§1) Determination of IC50 of Janus Kinase (JAK) Inhibition: […]

[2] = target: JAK3: Recombinant human kinase domain (Homo sapiens, UniProt P52333); test: JAK3 kinase inhibition, radioactive end-point assay; details: 0.5 nM or 0.2 nM JAK3, ATP 1.5 uM, peptide 50 uM, 20 minutes, room temperature; read-out: IC50 h-jak3-sf21-c
JAK3: Recombinant human kinase domain, sequence (P52333 822-1111 limits assumed): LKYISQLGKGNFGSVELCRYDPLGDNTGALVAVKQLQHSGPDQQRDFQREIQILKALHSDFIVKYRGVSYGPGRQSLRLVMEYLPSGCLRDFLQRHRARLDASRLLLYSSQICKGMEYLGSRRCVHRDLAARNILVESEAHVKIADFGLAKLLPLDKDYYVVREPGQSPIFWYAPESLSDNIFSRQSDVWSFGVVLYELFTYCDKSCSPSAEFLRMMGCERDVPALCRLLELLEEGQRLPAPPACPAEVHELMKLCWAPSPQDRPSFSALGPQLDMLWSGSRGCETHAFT
Excerpt: as §1

[3] = target: T1, recombinant human SYK360-635 (Homo sapiens, UniProt P43405); test: SYK kinase assay, 33P ATP incorporation into biotinylated peptide; details: 0.5 nM SYK aa 360-635, ATP 20 μM, peptide 5 μM, 15 min at 30° C.; read-out: IC50 h-syk (360-635)-baculovirus-c
T1 construct: truncated construct of Spleen Tyrosine Kinase aa 360-635; made in house
Method: SYK Assay Information Determination of IC50 of Spleen Tyrosine Kinase (SYK) Inhibition:
SYK kinase assay is a standard kinase assay adapted to a 96 well plate format. This assay is performed in 96-well format for IC50 determination with 8 samples which represented 10 half log dilutions and a 40 μL reaction volume. The assay measures the incorporation of radiolabeled ^33P γATP into an N-terminally biotinylated peptide substrate, derived from naturally occurring phosphoacceptor consensus sequence (Biotin-11aa DY*E). Phosphorylated products were detected upon termination of reactions with EDTA and the addition of Streptavidin coated beads. […]
The unbound radionucleotides were washed under vacuum with 3×250 μL 2M NaCl; 2×250 μL 2M NaCl+1% phosphoric acid; 1×250 μL H2O. After the last wash membrane/plates were transferred to an adaptor plate, heat dried for 15 min at 60° C., and 50 μL scintillation cocktail was added to each well and 4 h later the amount of radioactivity was counted in a top counter.
The percent inhibition was calculated based on the uninhibited enzyme rate: % Inhibition=100/(1+(IC50/Inhibitor cone)^n) • The IC50 was calculated using a non-linear curve fit with XLfit software (ID Business Solution Ltd., Guilford, Surrey, UK).

[4] = target: JAK1: Recombinant human kinase domain (Homo sapiens, UniProt P23458); test: JAK1 kinase inhibition, radioactive end-point assay; details: 5 nM JAK1, ATP 10 uM, peptide 50 uM, 40 minutes, room temperature; read-out: IC50 h-jak1-sf21-c
JAK1: Recombinant human kinase domain, sequence (P23458 875-1153 limits assumed): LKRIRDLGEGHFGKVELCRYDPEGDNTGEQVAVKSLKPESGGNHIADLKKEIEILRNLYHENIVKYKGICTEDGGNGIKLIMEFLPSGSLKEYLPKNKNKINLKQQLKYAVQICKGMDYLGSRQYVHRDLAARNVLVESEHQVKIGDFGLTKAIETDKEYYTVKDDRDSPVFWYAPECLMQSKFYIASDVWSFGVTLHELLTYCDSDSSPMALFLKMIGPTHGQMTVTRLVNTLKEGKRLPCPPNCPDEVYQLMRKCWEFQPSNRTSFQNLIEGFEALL
Excerpt: as §1

JAK2: Recombinant human kinase domain, sequence (O60674 849-1124 limits assumed): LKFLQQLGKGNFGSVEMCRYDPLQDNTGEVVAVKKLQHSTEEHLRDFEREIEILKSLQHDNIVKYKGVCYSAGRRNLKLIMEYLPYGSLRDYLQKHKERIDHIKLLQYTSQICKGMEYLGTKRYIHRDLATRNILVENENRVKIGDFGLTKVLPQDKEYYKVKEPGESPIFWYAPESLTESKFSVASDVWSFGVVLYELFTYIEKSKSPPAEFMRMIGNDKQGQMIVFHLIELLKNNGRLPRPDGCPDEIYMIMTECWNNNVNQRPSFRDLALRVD

SMILES	IC50 [1]	IC50 [2]	IC50 [3]	IC50 [4]
COc1cc(-c2cnc3[nH]cc(C(=O)C(C)(C)C)c3n2)cc(OC)c1OC [Example I-12, 2,2-Dimethyl-1-[2-(3,4,5-trimethoxy-phenyl)-5H-pyrrolo[2,3-b]pyrazin-7-yl]-propan-1-one]	455 nM	56.1 nM	317 nM	
CC(C)(C)C(=O)c1c[nH]c2ncc(-c3cccc(N4CCCC4)c3)nc12 [Example I-64, 2,2-Dimethyl-1-[2-(3-pyrrolidin-1-yl-phenyl)-5H-pyrrolo[2,3-b]pyrazin-7-yl]-propan-1-one]	3440 nM	24.1 nM	1310 nM	2100 nM
COc1cc(-c2cnc3[nH]cc(C(=O)NCC(C)OC)c3n2)cc(OC)c1OC (centres unmarked) [Example I-82, 2-(3,4,5-Trimethoxy-phenyl)-5H-pyrrolo[2,3-b]pyrazine-7-carboxylic acid (2-methoxy-propyl)-amide]	10.8 nM	4.6 nM	36 nM	90 nM
COc1cc(-c2cnc3[nH]cc(C(=O)C4(C)CCCCC4)c3n2)cc(OC)c1OC [Example I-117, (1-Methyl-cyclohexyl)-[2-(3,4,5-trimethoxy-phenyl)-5H-pyrrolo[2,3-b]pyrazin-7-yl]-methanone]	107 nM	6.8 nM	162 nM	
